Results: ChEMBL document CHEMBL1649074, “Aurora kinase inhibitors based on the imidazo[1,2-a]pyrazine core: fluorine and deuterium incorporation improve oral absorption and exposure” (J Med Chem, 2011)

What was measured:
[1] = Clearance in Sprague-Dawley rat at 10 mg/kg, iv; assay type: ADME, organism-based; set-up: dose 10 mg/kg, route intravenous; settings: in vivo
[2] = target: Vascular endothelial growth factor receptor 2 (Homo sapiens, UniProt P35968); test: Inhibition of KDR
[3] = target: Interleukin-1 receptor-associated kinase 4 (Homo sapiens, UniProt Q9NWZ3); test: Inhibition of IRAK4
Interleukin-1 receptor-associated kinase 4, sequence (Q9NWZ3 whole entry): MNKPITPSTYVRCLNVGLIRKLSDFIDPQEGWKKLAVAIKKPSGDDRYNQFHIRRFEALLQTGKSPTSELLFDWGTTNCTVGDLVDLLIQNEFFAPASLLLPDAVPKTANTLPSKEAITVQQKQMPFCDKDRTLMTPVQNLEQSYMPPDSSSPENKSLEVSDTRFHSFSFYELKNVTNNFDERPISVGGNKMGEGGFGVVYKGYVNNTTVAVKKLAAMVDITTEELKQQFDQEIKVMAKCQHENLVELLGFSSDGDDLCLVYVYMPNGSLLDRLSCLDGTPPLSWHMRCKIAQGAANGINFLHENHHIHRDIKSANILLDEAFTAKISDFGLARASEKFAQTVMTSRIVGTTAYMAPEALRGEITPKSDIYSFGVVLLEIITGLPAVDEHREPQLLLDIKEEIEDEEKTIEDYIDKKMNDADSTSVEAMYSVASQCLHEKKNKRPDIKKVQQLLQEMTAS

[4] = AUC (0 to 24 hrs) in CD1 mouse at 3 mg/kg, iv; assay type: ADME, organism-based; set-up: time < 24 hr, dose 3 mg/kg, route intravenous; settings: plasma
Aurora kinase A = target: T1, Aurora kinase A (Homo sapiens, UniProt O14965); test: Inhibition of Aurora A
T1 sequence (O14965 whole entry): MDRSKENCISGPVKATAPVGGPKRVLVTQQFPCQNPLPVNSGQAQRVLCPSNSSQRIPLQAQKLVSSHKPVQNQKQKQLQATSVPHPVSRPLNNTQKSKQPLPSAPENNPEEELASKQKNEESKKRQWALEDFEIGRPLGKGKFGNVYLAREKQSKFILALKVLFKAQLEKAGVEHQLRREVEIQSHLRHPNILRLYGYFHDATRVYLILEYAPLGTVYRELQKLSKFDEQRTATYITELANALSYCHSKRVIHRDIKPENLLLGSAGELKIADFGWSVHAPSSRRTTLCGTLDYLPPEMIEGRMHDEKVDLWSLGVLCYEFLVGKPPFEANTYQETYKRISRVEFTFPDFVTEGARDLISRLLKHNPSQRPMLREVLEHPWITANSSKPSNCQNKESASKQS

[5] = target: T2, Testis-specific serine/threonine-protein kinase 2 (Homo sapiens, UniProt Q96PF2); test: Inhibition of TSSK2
T2 sequence (Q96PF2 whole entry): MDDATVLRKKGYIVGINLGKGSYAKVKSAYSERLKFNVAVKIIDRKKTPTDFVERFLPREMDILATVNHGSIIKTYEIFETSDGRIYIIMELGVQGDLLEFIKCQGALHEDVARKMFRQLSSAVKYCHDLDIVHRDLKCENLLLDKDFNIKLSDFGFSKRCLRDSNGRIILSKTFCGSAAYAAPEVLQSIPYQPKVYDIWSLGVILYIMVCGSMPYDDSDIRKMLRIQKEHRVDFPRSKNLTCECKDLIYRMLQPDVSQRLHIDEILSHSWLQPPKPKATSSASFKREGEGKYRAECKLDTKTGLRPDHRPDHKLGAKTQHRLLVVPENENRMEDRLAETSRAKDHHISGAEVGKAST

[6] = target: Cyclin-dependent kinase 2 (Homo sapiens, UniProt P24941); test: Inhibition of CDK2
[7] = Oral bioavailability in CD1 mouse at 50 mg/kg; assay type: ADME, organism-based; settings: in vivo
[8] = AUC (0 to 24 hrs) in Sprague-Dawley rat at 30 mg/kg, po; assay type: ADME, organism-based; set-up: time < 24 hr, dose 30 mg/kg, route oral; settings: plasma
[9] = AUC (0 to 6 hrs) in rat at 10 mg/kg, po; assay type: ADME, organism-based; set-up: time < 6 hr, dose 10 mg/kg, route oral; settings: plasma
[10] = target: T3, Inhibitor of nuclear factor kappa-B kinase subunit beta (Homo sapiens, UniProt O14920); test: Inhibition of IKK-beta
T3 sequence (O14920 whole entry): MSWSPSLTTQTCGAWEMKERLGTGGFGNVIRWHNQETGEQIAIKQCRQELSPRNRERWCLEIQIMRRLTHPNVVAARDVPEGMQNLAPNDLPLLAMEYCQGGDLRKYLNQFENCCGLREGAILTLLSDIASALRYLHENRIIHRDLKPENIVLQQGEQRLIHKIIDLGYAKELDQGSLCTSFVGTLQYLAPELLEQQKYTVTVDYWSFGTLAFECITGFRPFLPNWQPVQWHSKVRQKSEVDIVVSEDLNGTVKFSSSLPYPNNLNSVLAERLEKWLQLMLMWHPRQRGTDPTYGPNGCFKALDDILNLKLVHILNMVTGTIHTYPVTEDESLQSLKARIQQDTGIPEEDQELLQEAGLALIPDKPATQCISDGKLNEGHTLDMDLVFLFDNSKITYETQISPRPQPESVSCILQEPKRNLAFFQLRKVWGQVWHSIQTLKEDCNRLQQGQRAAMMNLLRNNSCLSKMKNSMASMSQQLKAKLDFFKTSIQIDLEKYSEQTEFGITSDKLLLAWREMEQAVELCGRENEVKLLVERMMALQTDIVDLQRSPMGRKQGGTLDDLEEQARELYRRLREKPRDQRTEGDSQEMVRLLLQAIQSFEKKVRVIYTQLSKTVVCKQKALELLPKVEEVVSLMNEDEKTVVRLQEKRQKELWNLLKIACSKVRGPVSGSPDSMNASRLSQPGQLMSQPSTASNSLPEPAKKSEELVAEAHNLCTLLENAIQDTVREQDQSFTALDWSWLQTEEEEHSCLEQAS

[11] = target: Serine/threonine-protein kinase Chk1 (Homo sapiens, UniProt O14757); test: Inhibition of CHK1
Serine/threonine-protein kinase Chk1, sequence (O14757 whole entry): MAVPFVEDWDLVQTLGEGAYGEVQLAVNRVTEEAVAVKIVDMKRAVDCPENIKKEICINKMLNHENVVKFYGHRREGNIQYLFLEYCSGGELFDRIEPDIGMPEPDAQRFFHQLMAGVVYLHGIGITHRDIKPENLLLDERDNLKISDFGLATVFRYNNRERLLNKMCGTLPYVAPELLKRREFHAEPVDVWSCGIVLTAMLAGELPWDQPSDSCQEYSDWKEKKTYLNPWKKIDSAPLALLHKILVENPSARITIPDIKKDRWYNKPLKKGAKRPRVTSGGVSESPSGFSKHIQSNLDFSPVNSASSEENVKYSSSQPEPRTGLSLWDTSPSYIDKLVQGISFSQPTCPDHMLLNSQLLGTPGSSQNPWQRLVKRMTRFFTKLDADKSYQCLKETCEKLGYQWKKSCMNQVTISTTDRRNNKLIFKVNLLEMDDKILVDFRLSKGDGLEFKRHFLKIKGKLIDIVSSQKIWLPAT

Aurora kinase B = Aurora kinase B (Homo sapiens, UniProt Q96GD4); test: Inhibition of Aurora B
Aurora kinase B, sequence (Q96GD4 whole entry): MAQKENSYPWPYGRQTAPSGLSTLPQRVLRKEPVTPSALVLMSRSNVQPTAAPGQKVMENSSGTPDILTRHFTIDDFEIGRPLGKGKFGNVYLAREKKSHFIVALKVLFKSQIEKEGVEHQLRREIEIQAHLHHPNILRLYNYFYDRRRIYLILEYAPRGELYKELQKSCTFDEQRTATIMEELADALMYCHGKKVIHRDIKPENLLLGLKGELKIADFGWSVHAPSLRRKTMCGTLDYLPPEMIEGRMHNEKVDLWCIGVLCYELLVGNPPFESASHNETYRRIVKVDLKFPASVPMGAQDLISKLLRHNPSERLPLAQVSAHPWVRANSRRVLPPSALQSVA

[12] = AUC (0 to 24 hrs) in CD1 mouse at 50 mg/kg, po; assay type: ADME, organism-based; set-up: time < 24 hr, dose 50 mg/kg, route oral; settings: plasma
[13] = Oral bioavailability in Sprague-Dawley rat at 30 mg/kg; assay type: ADME, organism-based; settings: in vivo
[14] = AUC (0 to 24 hrs) in Sprague-Dawley rat at 10 mg/kg, iv; assay type: ADME, organism-based; set-up: time < 24 hr, dose 10 mg/kg, route intravenous; settings: plasma
[15] = Clearance in CD1 mouse at 3 mg/kg, iv; assay type: ADME, organism-based; set-up: dose 3 mg/kg, route intravenous; settings: in vivo
[16] = AUC (0 to 24 hrs) in cynomolgus monkey at 30 mg/kg, po; assay type: ADME, organism-based, Macaca fascicularis; set-up: time < 24 hr, dose 30 mg/kg, route oral; settings: plasma
[17] = Plasma clearance in rat; assay type: ADME, organism-based
[18] = Oral bioavailability in cynomolgus monkey at 30 mg/kg; assay type: ADME, organism-based, Macaca fascicularis; settings: in vivo
[19] = target: RAC-alpha serine/threonine-protein kinase (Homo sapiens, UniProt P31749); test: Inhibition of AKT1
RAC-alpha serine/threonine-protein kinase, sequence (P31749 whole entry): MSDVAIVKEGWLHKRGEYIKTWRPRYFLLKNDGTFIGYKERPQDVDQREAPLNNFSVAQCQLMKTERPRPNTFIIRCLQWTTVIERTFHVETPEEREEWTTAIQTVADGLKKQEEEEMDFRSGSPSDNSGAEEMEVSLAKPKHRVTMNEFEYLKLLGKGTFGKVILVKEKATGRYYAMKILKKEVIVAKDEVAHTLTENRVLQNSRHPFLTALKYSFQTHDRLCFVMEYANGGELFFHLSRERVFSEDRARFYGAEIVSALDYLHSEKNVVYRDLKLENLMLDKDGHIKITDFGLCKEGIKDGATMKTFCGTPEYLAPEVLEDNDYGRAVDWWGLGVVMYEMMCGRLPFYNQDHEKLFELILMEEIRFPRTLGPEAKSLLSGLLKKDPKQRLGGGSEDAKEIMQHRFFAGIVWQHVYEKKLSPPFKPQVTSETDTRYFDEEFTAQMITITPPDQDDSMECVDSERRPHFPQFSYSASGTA

[20] = target: T4, Calcium/calmodulin-dependent protein kinase type IV (Homo sapiens, UniProt Q16566); test: Inhibition of CAMK4
T4 sequence (Q16566 whole entry): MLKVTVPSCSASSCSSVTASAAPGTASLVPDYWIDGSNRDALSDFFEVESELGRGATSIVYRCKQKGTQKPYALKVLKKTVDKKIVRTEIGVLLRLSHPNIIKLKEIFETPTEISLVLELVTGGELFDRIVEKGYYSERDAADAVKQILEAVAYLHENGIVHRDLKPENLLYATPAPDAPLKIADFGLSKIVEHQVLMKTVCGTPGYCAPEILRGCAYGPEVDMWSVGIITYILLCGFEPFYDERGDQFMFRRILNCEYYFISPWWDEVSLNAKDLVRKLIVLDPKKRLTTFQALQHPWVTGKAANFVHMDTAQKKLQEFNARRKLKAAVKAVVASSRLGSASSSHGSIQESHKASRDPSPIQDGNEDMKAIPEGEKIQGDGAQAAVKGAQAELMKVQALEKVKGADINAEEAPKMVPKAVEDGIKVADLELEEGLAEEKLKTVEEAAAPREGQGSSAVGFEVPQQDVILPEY

[21] = Clearance in cynomolgus monkey at 1 mg/kg, iv; assay type: ADME, organism-based, Macaca fascicularis; set-up: dose 1 mg/kg, route intravenous; settings: in vivo
[22] = target: Ribosomal protein S6 kinase alpha-3 (Homo sapiens, UniProt P51812); test: Inhibition of RSK2
Ribosomal protein S6 kinase alpha-3, sequence (P51812 whole entry): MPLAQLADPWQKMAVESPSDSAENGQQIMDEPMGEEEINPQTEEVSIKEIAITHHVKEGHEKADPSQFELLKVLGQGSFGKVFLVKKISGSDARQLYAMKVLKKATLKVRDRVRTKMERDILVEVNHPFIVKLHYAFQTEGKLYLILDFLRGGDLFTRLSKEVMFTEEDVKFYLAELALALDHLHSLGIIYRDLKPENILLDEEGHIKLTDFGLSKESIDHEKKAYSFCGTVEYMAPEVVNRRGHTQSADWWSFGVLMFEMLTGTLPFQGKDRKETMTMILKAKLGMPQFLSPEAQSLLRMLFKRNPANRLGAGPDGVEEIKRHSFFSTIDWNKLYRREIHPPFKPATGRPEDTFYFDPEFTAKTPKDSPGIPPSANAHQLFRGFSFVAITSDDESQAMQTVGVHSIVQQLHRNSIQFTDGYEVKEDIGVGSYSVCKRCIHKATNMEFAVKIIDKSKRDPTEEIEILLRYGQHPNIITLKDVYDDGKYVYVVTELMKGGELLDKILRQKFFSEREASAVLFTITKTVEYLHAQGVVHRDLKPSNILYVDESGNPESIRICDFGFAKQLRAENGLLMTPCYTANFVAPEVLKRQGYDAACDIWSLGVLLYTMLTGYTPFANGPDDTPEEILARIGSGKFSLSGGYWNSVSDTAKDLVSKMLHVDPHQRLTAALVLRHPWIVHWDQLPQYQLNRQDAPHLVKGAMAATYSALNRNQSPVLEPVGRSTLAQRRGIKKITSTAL

[23] = target: Tyrosine-protein kinase JAK2 (Homo sapiens, UniProt O60674); test: Inhibition of JAK2
Tyrosine-protein kinase JAK2, sequence (O60674 whole entry): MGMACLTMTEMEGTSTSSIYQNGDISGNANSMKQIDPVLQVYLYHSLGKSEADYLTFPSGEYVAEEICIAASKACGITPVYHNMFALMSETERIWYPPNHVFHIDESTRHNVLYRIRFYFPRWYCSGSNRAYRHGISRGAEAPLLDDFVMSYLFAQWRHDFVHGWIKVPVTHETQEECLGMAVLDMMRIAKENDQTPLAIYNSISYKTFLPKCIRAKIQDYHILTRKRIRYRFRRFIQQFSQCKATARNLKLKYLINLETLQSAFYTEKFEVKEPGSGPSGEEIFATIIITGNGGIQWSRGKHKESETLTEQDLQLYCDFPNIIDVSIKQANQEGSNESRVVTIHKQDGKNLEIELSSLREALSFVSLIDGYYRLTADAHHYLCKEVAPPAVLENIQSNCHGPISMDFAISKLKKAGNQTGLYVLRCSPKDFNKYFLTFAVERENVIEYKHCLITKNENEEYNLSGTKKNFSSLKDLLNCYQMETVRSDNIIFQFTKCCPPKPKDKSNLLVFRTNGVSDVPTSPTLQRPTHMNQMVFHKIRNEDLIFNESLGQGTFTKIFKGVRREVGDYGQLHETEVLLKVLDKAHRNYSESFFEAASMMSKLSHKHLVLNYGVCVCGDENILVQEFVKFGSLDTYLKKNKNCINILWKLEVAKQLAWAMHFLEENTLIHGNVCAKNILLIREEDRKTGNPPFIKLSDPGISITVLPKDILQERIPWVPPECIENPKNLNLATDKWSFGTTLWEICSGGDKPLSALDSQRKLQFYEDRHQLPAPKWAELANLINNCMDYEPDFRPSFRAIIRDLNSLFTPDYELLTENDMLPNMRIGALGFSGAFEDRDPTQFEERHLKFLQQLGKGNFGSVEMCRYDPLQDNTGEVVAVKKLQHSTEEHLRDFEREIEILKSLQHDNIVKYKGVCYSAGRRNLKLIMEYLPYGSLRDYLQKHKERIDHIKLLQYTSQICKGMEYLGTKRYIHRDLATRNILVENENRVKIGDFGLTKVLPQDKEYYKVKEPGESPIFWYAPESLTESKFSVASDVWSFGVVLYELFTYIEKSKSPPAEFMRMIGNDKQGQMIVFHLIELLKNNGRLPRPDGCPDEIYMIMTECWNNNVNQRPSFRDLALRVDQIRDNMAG

Vascular endothelial growth factor receptor 2, sequence (P35968 whole entry): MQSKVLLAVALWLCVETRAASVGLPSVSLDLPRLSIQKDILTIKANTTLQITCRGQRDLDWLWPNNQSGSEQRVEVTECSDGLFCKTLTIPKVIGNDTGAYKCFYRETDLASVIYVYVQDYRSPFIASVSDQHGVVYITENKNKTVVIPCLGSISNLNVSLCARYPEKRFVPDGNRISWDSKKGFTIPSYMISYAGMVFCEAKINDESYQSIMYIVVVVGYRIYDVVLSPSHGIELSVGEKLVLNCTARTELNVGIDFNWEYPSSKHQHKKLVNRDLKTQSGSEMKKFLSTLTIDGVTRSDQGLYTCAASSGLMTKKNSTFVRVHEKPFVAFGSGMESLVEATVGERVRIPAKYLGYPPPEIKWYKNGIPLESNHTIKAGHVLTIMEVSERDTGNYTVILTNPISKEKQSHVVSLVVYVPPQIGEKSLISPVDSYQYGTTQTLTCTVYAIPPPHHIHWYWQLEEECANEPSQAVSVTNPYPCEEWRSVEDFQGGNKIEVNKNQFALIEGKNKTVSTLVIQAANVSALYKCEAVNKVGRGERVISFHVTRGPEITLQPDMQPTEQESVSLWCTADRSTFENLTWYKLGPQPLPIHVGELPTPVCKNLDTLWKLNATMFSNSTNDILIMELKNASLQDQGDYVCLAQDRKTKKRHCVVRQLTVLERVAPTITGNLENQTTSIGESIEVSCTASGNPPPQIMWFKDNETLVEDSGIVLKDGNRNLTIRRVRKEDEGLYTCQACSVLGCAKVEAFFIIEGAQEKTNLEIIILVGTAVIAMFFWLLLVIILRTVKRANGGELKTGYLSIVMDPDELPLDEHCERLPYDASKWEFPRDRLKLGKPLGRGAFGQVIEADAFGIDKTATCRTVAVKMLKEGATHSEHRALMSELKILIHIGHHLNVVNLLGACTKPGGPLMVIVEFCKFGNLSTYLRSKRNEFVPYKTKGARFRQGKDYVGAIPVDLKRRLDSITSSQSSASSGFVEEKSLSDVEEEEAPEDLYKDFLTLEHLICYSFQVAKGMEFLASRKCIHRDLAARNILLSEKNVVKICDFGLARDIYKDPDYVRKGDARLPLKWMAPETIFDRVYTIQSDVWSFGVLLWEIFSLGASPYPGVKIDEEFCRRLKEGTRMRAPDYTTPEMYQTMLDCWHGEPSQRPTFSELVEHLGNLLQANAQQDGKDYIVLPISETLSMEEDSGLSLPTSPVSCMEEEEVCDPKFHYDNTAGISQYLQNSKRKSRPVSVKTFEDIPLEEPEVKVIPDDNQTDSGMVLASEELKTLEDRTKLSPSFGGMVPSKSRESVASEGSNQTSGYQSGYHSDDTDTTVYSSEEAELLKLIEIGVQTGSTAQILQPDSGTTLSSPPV

Row | clearance [1] [mL/min/kg] | IC50 [2] [nM] | IC50 [3] [nM] | AUC(0-t) at 24 h [4] [µM·h] | IC50 (Aurora kinase A) [nM] | IC50 [5] [nM] | IC50 [6] [nM] | bioavailability [7] [%] | AUC(0-t) at 24 h [8] [µM·h] | AUC(0-t) at 6 h [9] [µM·h] | IC50 [10] [nM] | IC50 [11] [nM] | IC50 (Aurora kinase B) [nM] | AUC(0-t) at 24 h [12] [µM·h] | bioavailability [13] [%] | AUC(0-t) at 24 h [14] [µM·h] | clearance [15] [mL/min/kg] | AUC(0-t) at 24 h [16] [µM·h] | IC50 [19] [nM] | IC50 [20] [nM] | Compound | other results
1 | 6.3 | 340 | 640 | 5.9 | ≤ 4 | > 100 | > 100 | 37 | 62.1 | 4.73 | > 100 | 200 | ≤ 13 | 35.9 | 33 | 63.3 | 20.3 | 5.1 | > 100 | > 100 | Cl.[2H]C([2H])(c1cc(Nc2nc(C)cn3c(-c4cn[nH]c4)cnc23)sn1)N1CCC(F)(F)C1 | clearance [17]: 6.3 mL/min/kg; bioavailability [18]: 2%; clearance [21]: 4.2 mL/min/kg
2 | 33 | 550 | 1000 | 0.9 | ≤ 4 | > 100 | > 100 | 60 | 6.9 | 1.61 | > 100 | 640 | ≤ 13 | 9.4 | 19 | 12.2 | 127 | 1.7 | > 100 | > 100 | Cc1cn2c(-c3cn[nH]c3)cnc2c(Nc2cc(CN3CCC(F)(F)C3)ns2)n1.Cl | clearance [17]: 33 mL/min/kg; bioavailability [18]: 2%
3 |  | < 1 |  |  | ≤ 4 | > 100 | > 100 |  |  |  | > 100 |  | ≤ 13 |  |  |  |  |  | > 100 | > 100 | CCN(Cc1cc(Nc2nc(C)cn3c(-c4cn[nH]c4)cnc23)sn1)C(C)(C)CO | IC50 [22]: > 100 nM; IC50 [23]: > 100 nM
